Where “and” joins values, the source holds several entries; their conditions need not be identical. Identical values can stand only once. Inconclusive results and toxic doses are left out.

For the assay, the system named is BDF1 mice, B16 melanoma ip, median survival T/C. In words: NCI In Vivo Anticancer Drug Screen. Data for tumor model B16 Melanoma (intraperitoneal) in B6D2F1 (BDF1) mice. As to conditions: endpoint: median survival time, higher = longer survival. The method in brief: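 Antitumor activity is assessed in mice bearing a transplanted tumor, with survival or tumor size compared against vehicle-dosed controls and expressed as T/C.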

The mark [1] stands for this setting: dose: 1.25 mg/kg/injection, schedule: Q01DX009 (ip), vehicle: saline with Tween-80.
[2] abbreviates: dose: 2.5 mg/kg/injection, schedule: Q01DX009 (ip), vehicle: saline with Tween-80.
The mark [3] stands for this setting: dose: 50.0 mg/kg/injection, schedule: Q01DX009 (ip), vehicle: Klucel (hydroxypropylcellulose) (HPC).
Where [4] appears, read: dose: 100.0 mg/kg/injection, schedule: Q01DX009 (ip), vehicle: Klucel (hydroxypropylcellulose) (HPC).
[5] abbreviates: dose: 25.0 mg/kg/injection, schedule: Q01DX009 (ip), vehicle: Klucel (hydroxypropylcellulose) (HPC).
[6] abbreviates: dose: 50.0 mg/kg/injection, schedule: Q01DX009 (ip), vehicle: saline with Tween-80.
[7] abbreviates: dose: 3.13 mg/kg/injection, schedule: Q01DX009 (ip), vehicle: saline with Tween-80.
The mark [8] stands for this setting: dose: 6.25 mg/kg/injection, schedule: Q01DX009 (ip), vehicle: saline with Tween-80.
Setting [9] is: dose: 12.5 mg/kg/injection, schedule: Q01DX009 (ip), vehicle: saline with Tween-80.
[10] abbreviates: dose: 25.0 mg/kg/injection, schedule: Q01DX009 (ip), vehicle: saline with Tween-80.
Setting [11] is: dose: 400.0 mg/kg/injection, schedule: Q01DX009 (ip), vehicle: saline with Tween-80.
Where [12] appears, read: dose: 6.25 mg/kg/injection, schedule: Q01DX009 (ip), vehicle: Klucel (hydroxypropylcellulose) (HPC).
The mark [13] stands for this setting: dose: 12.5 mg/kg/injection, schedule: Q01DX009 (ip), vehicle: Klucel (hydroxypropylcellulose) (HPC).

For `CC12CCC(O)CC1CCC1C2CCC2(C)C(c3ccc(=O)oc3)CCC12O` (stereo unspecified), the T/C runs as follows: (dose: 0.31 mg/kg/injection, schedule: Q01DX009 (ip), vehicle: saline with Tween-80) 98 % of control; (dose: 0.62 mg/kg/injection, schedule: Q01DX009 (ip), vehicle: saline with Tween-80) 94 % of control; under setting [1], 99 % of control; under setting [2], 99 % of control.
Turning to `CSc1ncnc2nc[nH]c12`, the T/C under setting [3] was 104 % of control; the T/C under setting [4] was 100 % of control; the T/C (dose: 200.0 mg/kg/injection, schedule: Q01DX009 (ip), vehicle: Klucel (hydroxypropylcellulose) (HPC)) was 102 % of control; the T/C (dose: 400.0 mg/kg/injection, schedule: Q01DX009 (ip), vehicle: Klucel (hydroxypropylcellulose) (HPC)) is 88 % of control.
As to `O=c1[nH]cc(F)c(=O)[nH]1.[Tl]`, the T/C is 95 % of control (dose: 1.25 mg/kg/injection, schedule: Q01DX009 (ip), vehicle: water); 100 % of control (dose: 2.5 mg/kg/injection, schedule: Q01DX009 (ip), vehicle: water); 102 % of control (dose: 5.0 mg/kg/injection, schedule: Q01DX009 (ip), vehicle: water); 113 % of control (dose: 10.0 mg/kg/injection, schedule: Q01DX009 (ip), vehicle: water).
`CCCCCCCCCCCCCCCC(=O)N(CCC#N)C(C)(C)CCC(C)(C)N(CCC#N)C(=O)CCCCCCCCCCCCCCC`: the T/C was 90 % of control under setting [5], 98 % of control under setting [3] and 91 % of control under setting [4].
For `[Cl][Pt+2][Cl].[NH-]c1ccc(Cl)cc1[NH-]`, the T/C is, setting by setting: under setting [2], 108 % of control; (dose: 20.0 mg/kg/injection, schedule: Q01DX009 (ip), vehicle: saline with Tween-80) 153 % of control; (dose: 40.0 mg/kg/injection, schedule: Q01DX009 (ip), vehicle: saline with Tween-80) 123 % of control.
In the case of `CCCN(C)/N=N/c1[nH]ncc1C(N)=O`, the T/C is 114 % of control (dose: 17.0 mg/kg/injection, schedule: Q01DX009 (ip), vehicle: saline with Tween-80); 111 % of control (dose: 37.0 mg/kg/injection, schedule: Q01DX009 (ip), vehicle: saline with Tween-80); 121 % of control under setting [6].
In the case of `COc1c(Cl)cc2c(c1OC)N(C)C1N3C(=O)C4(C)SSC3(C(=O)N4C)C(O)C21O` (stereo unspecified), the T/C runs as follows: (dose: 0.12 mg/kg/injection, schedule: Q01DX009 (ip), vehicle: Klucel (hydroxypropylcellulose) (HPC)) 103 % of control; (dose: 0.25 mg/kg/injection, schedule: Q01DX009 (ip), vehicle: Klucel (hydroxypropylcellulose) (HPC)) 106 % of control.
`Cc1cc(Cl)ccc1NC(=O)COc1ccc(Cl)cc1`: the T/C was 104 % of control under setting [7]; 98 % of control under setting [8]; 88 % of control and 95 % of control under setting [9]; 93 % of control under setting [10]; 91 % of control under setting [6].
For the compound `Oc1ccc2ccccc2c1N=Nc1ccc(Cl)cc1`, the T/C under setting [11] is 90 % of control.
For the compound `[Cl][Pt+2][Cl].[NH-]CC1(C[NH-])CCCC1`, the T/C was 124 % of control (dose: 0.5 mg/kg/injection, schedule: Q01DX009 (ip), vehicle: saline); 112 % of control (dose: 1.0 mg/kg/injection, schedule: Q01DX009 (ip), vehicle: saline); 157 % of control (dose: 2.0 mg/kg/injection, schedule: Q01DX009 (ip), vehicle: saline).
On to `C/C=C(\Cl)C1=CC(=O)C23CC2C2(C)COC1(O)C3(O)O2` (stereo unspecified), for which the T/C (dose: 0.75 mg/kg/injection, schedule: Q01DX009 (ip), vehicle: saline with Tween-80) was 91 % of control.
`COc1ccc2c(c1)CCC(c1ccccc1)=C2c1ccc(OCCN2CCCC2)cc1`: the T/C runs as follows: (dose: 6.0 mg/kg/injection, schedule: Q01DX009 (ip), vehicle: saline sonified) 102 % of control; (dose: 12.0 mg/kg/injection, schedule: Q01DX009 (ip), vehicle: saline sonified) 111 % of control; (dose: 24.0 mg/kg/injection, schedule: Q01DX009 (ip), vehicle: saline sonified) 111 % of control.
In the case of `CCCC(C(=O)O)C(CCC)C(=O)O` (stereo unspecified), the T/C reads like this: (dose: 100.0 mg/kg/injection, schedule: Q04DX003 (ip), vehicle: saline with Tween-80) 97 % of control; (dose: 200.0 mg/kg/injection, schedule: Q04DX003 (ip), vehicle: saline with Tween-80) 88 % of control; (dose: 400.0 mg/kg/injection, schedule: Q04DX003 (ip), vehicle: saline with Tween-80) 88 % of control.
On to `COC(CCC(C)C1OC23CC(OC(=O)CC(C(C)O)OC(=O)CC(O)(O2)C(C)CC3(C)C)C1C)c1cccc(O)c1` (stereo unspecified), for which the T/C by setting is: (dose: 12.5 micrograms/kg/injection, schedule: Q01DX009 (ip), vehicle: other) 103 % of control; (dose: 25.0 micrograms/kg/injection, schedule: Q01DX009 (ip), vehicle: other) 101 % of control; (dose: 50.0 micrograms/kg/injection, schedule: Q01DX009 (ip), vehicle: other) 97 % of control; (dose: 100.0 micrograms/kg/injection, schedule: Q01DX009 (ip), vehicle: other) 101 % of control.
Take `Nc1ccc(S(=O)(=O)N/N=C/c2ccccc2[N+](=O)[O-])cc1`: the T/C by setting is: under setting [7], 115 % of control; under setting [8], 96 % of control and 123 % of control; under setting [9], 99 % of control and 122 % of control; under setting [10], 105 % of control; under setting [6], 118 % of control.
Regarding `Cc1ccc2c(ccc3c[n+]4ccccc4c(C)c32)c1`, the T/C under setting [1] is 95 % of control; the T/C under setting [2] is 95 % of control and 102 % of control; the T/C (dose: 5.0 mg/kg/injection, schedule: Q01DX009 (ip), vehicle: saline with Tween-80) is 90 % of control and 102 % of control.
For `COc1cc(C(=O)O)c2c(c1C)OC(=O)c1c(C)cc(O)c(C=O)c1O2`, the T/C (dose: 1.39 mg/kg/injection, schedule: Q01DX009 (ip), vehicle: saline with Tween-80) was 97 % of control; the T/C (dose: 2.78 mg/kg/injection, schedule: Q01DX009 (ip), vehicle: saline with Tween-80) is 99 % of control; the T/C (dose: 5.56 mg/kg/injection, schedule: Q01DX009 (ip), vehicle: saline with Tween-80) is 110 % of control; the T/C under setting [12] was 111 % of control; the T/C (dose: 11.0 mg/kg/injection, schedule: Q01DX009 (ip), vehicle: saline with Tween-80) was 158 % of control; the T/C under setting [13] was 117 % of control. Also, the T/C is 150 % of control under setting [9]; 122 % of control under setting [5]; 160 % of control under setting [10]; 113 % of control (dose: 25.0 mg/kg/injection, schedule: Q04DX003 (ip), vehicle: saline with Tween-80); 105 % of control (dose: 50.0 mg/kg/injection, schedule: Q04DX003 (ip), vehicle: saline with Tween-80).
In the case of `CCCCNC(C)(C)C(SSSC(c1ccco1)C(C)(C)NCCCC)c1ccco1` (stereo unspecified), the T/C reads like this: (dose: 3.13 mg/kg/injection, schedule: Q01DX009 (ip), vehicle: carboxymethylcellulose (CMC)) 102 % of control; (dose: 6.25 mg/kg/injection, schedule: Q01DX009 (ip), vehicle: carboxymethylcellulose (CMC)) 102 % of control; (dose: 12.5 mg/kg/injection, schedule: Q01DX009 (ip), vehicle: carboxymethylcellulose (CMC)) 95 % of control; under setting [5], 91 % of control; (dose: 25.0 mg/kg/injection, schedule: Q01DX009 (ip), vehicle: carboxymethylcellulose (CMC)) 86 % of control.
For the compound `O=C(O)c1ccc2c([N+](=O)[O-])cccc2n1`, the T/C by setting is: under setting [3], 112 % of control; under setting [4], 112 % of control.
Regarding `CO[C@H]1C[C@@H]2CC[C@@H](C)[C@@](O)(O2)C(=O)C(=O)N2CCCC[C@H]2C(=O)O[C@H]([C@H](C)C[C@@H]2CC[C@@H](O)[C@H](OC)C2)CC(=O)[C@H](C)C=C(C)[C@@H](O)[C@@H](OC)C(=O)[C@H](C)C[C@H](C)/C=C/C=C/C=C1C`, the T/C by setting is: (dose: 190.0 mg/kg/injection, schedule: Q01DX001 (ip), vehicle: saline with Tween-80) 159 % of control; (dose: 200.0 mg/kg/injection, schedule: Q01DX009 (ip), vehicle: saline with Tween-80) 110 % of control; (dose: 380.0 mg/kg/injection, schedule: Q01DX001 (ip), vehicle: saline with Tween-80) 112 % of control; under setting [11], 109 % of control; (dose: 760.0 mg/kg/injection, schedule: Q01DX001 (ip), vehicle: saline with Tween-80) 123 % of control.
Consider `CCCCCCCCCCCC(O)CCCC` (stereo unspecified), for which the T/C under setting [12] is 99 % of control and the T/C under setting [13] is 104 % of control.

The values above are taken from PubChem BioAssay AID192 (DTP/NCI, 2004).
